We go through four compounds from article PMC2073845, “Tracer Studies of Potential Radiosensitizing Agents” (British Journal of Cancer, 1956).

Where two headings read alike, the source gives them in different places.

The conditions of data set [1]: for injected compound in urine: 5 mg i.v. An excerpt: OPO3Na2 OPO3Na2 OP03H2 ICOH3 CH3 CH3 131I I 82Br CH3 1311 OPO3Na2 OPO3Na2 OP03H2 I II III METHODS AND MATERIALS Counting.-y-emission from the halogens was the basis of detection. The simple technique of placing samples of the organs under a shielded counter could not be used since variations in the thickness of the organs would vary the sample- counter distance, leading to considerable counting errors. This type of error was reduced by locating the sample on a thin aluminium tray midway between two G-10-Pb glass-covered Geiger-Muller tubes in copper sheaths placed 10 cm. apart in a castle of 2 inch lead and connected in parallel to the same scaler. The 50 D. H. MARRIAN AND D. R. MAXWELL sensitivity of the arrangement was about 9000 c.p.m./,tC 52Br. Samples and backgrounds were counted to a standard error of 5 per cent or less. […] The hydroscopic salt (II) was dissolved in 0 9 per cent saline and the concentration determined by ultraviolet spectroscopy (absorption maxima at 232m,u. (M = 70,000) and 290 m,u. (M = 5,800) in 0-01N- hydrochloric acid). […] Exposure to chlorine vapour caused red spots of bromofluoroscein to appear on a yellow background. […] The iodinated compound (III), was dissolved in 0 9 per cent saline and neutralised by addition of sodium hydroxide solution. The purity of the solution was determined by paper electrophoresis at pH 7 (Markham and Smith, 1952). This clearly separated the organic compound from iodide ion, the former being detected by ultraviolet photography and the latter by spraying with starch solution and exposure to chlorine vapour. […] It was dissolved in 0 9 per cent saline before injection. […] C. for 4 hours at pH 4, 6, 7 and 9 and the reaction mixtures examined by paper electrophoresis. […] Animal experiments Rats carring a Walker carcinoma were used as previously described (Marrian and Maxwell, 1956). […] The radioactivity of these planchettes when the organs were being counted was used to calculate the differential absorption ratio (D.A.R.), (Marrian and Maxwell, 1956). In most experiments with the bromo-compound, the time required to count the organ necessitated a decay correction, calculated from the known half-life of 82Br-bromine (36 ? 0*2 hours). […] Upper curve: single counter. Lower curve: double counter. Ordinate: Percentage error in the count.

Data set [2] in a line: Differential absorption ratio (D.A.R.) of organs of rats carrying a Walker carcinoma after injection of the radio-labelled compound. An excerpt: (§1) OPO3Na2 OPO3Na2 OP03H2 ICOH3 CH3 CH3 131I I 82Br CH3 1311 OPO3Na2 OPO3Na2 OP03H2 I II III METHODS AND MATERIALS Counting.-y-emission from the halogens was the basis of detection. The simple technique of placing samples of the organs under a shielded counter could not be used since variations in the thickness of the organs would vary the sample- counter distance, leading to considerable counting errors. This type of error was reduced by locating the sample on a thin aluminium tray midway between two G-10-Pb glass-covered Geiger-Muller tubes in copper sheaths placed 10 cm. apart in a castle of 2 inch lead and connected in parallel to the same scaler. The 50 D. H. MARRIAN AND D. R. MAXWELL sensitivity of the arrangement was about 9000 c.p.m./,tC 52Br. Samples and backgrounds were counted to a standard error of 5 per cent or less. […] The hydroscopic salt (II) was dissolved in 0 9 per cent saline and the concentration determined by ultraviolet spectroscopy (absorption maxima at 232m,u. (M = 70,000) and 290 m,u. (M = 5,800) in 0-01N- hydrochloric acid). […] The purity of the solution was determined by paper electrophoresis at pH 7 (Markham and Smith, 1952). This clearly separated the organic compound from iodide ion, the former being detected by ultraviolet photography and the latter by spraying with starch solution and exposure to chlorine vapour. […]

Data set [3] concerns chick fibroblasts. The settings on record: cited from earlier work.
Details of data set [4]: method as in Mitchell, 1955; Marrian and Maxwell, 1956. The settings on record: after intravenous injection; ref Mitchell, 1955; Marrian and Maxwell, 1956; cited from earlier work.
The nature of data set [5]: Radioactivity in blood, plasma and urine as percentage of injected dose, tumour-bearing rats. The text has this: OPO3Na2 OPO3Na2 OP03H2 ICOH3 CH3 CH3 131I I 82Br CH3 1311 OPO3Na2 OPO3Na2 OP03H2 I II III METHODS AND MATERIALS Counting.-y-emission from the halogens was the basis of detection. The simple technique of placing samples of the organs under a shielded counter could not be used since variations in the thickness of the organs would vary the sample- counter distance, leading to considerable counting errors. This type of error was reduced by locating the sample on a thin aluminium tray midway between two G-10-Pb glass-covered Geiger-Muller tubes in copper sheaths placed 10 cm. apart in a castle of 2 inch lead and connected in parallel to the same scaler. The 50 D. H. MARRIAN AND D. R. MAXWELL sensitivity of the arrangement was about 9000 c.p.m./,tC 52Br. Samples and backgrounds were counted to a standard error of 5 per cent or less. […] The hydroscopic salt (II) was dissolved in 0 9 per cent saline and the concentration determined by ultraviolet spectroscopy (absorption maxima at 232m,u. (M = 70,000) and 290 m,u. (M = 5,800) in 0-01N- hydrochloric acid). […] Exposure to chlorine vapour caused red spots of bromofluoroscein to appear on a yellow background. […] The iodinated compound (III), was dissolved in 0 9 per cent saline and neutralised by addition of sodium hydroxide solution. The purity of the solution was determined by paper electrophoresis at pH 7 (Markham and Smith, 1952). This clearly separated the organic compound from iodide ion, the former being detected by ultraviolet photography and the latter by spraying with starch solution and exposure to chlorine vapour. […] It was dissolved in 0 9 per cent saline before injection. […] C. for 4 hours at pH 4, 6, 7 and 9 and the reaction mixtures examined by paper electrophoresis. […] The radioactivity of these planchettes when the organs were being counted was used to calculate the differential absorption ratio (D.A.R.), (Marrian and Maxwell, 1956). In most experiments with the bromo-compound, the time required to count the organ necessitated a decay correction, calculated from the known half-life of 82Br-bromine (36 ? 0*2 hours). […]

The nature of data set [6]: Attempted exchange reactions with ammonium 82Br-bromide in vitro. The class given is physicochemical. The settings on record: reactants in molar ratio; lower detection limit 2.0 per cent.
Source text: as §1

`Cc1c(C)c(OP(=O)(O)O)c([131I])c([131I])c1OP(=O)(O)O` [III, 2: 3-dimethyl-5: 6-di-1311-iodo-I: 4-benzohydroquinone diphosphate]: the “form of the label half an hour after injection” value in data set [1] (10 mg, by comparison with reported iodide distribution) was “much of the label derived from compound (III) is present as free iodide ion”. For the same compound, the “iodide ion in stomach contents and urine (paper electrophoresis)” value in data set [1] (10 mg, first 3 hours) is reported as “contain large amounts of iodide ion”. The “radioactivity of the thyroid” value in data set [2] (10 mg) is reported as “no more radioactivity than the surrounding tissue”. In data set [3] (same test, ref Simon-Reuss, unpublished), the antimitotic properties result is “inactive”.
Regarding `Cc1cc(OP(=O)(O)O)c2ccccc2c1OP(=O)(O)O` [Synkavit, tetrasodium 2-methyl-I: 4-naphthohydro-quinone diphosphate], in data set [4], the “accumulation in tumour tissue” value is given as “can accumulate in tumour tissue for short periods”.
In the case of `Cc1c([82Br])c(OP(=O)([O-])[O-])c2ccccc2c1OP(=O)([O-])[O-].[Na+].[Na+].[Na+].[Na+]` [II, tetrasodium 2-methyl-3-82Br-bromo-I: 4-naphthohydroquinone diphosphate], in data set [1] (6 hours after injection of 10 mg), the “form of radioactivity in stomach contents (paper electrophoresis)” value is “present as bromide ion”. For the same compound, in data set [1] (rat given 5 mg intravenously), the “form of radioactivity in urine (paper chromatography)” value was “most of the radioactivity was present as bromide ion”. The “injected compound in urine” value is “small amounts” in data set [1] (urine collected from 0 to 2 hours) and “None of the injected compound could be detected” in data set [1] (urine collected from 2 to 6 hours after injection). The “plasma share of the radioactivity of the whole blood” value in data set [5] (1 mg i.v.) is around 67 per cent. The “radioactivity associated with the blood” value in data set [5] (after 30 minutes, 1 mg i.v.) is reported as “about 15 per cent of the injected dose”. Further, the “radioactivity excreted in the urine” value in data set [5] (of a 1 mg (10.6 uC) dose, during 48 hours) is listed as 30-35 per cent. Further, the “D.A.R. of the tumour compared with other organs” value in data set [2] (1 mg i.v., only exceeded by stomach and contents) is “consistently higher than any of the above organs”. The antimitotic properties result in data set [3] (ref Friedmann, Marrian and Simon-Reuss, 1952) was “established”.
On to `Cc1c(Br)c(OP(=O)([O-])[O-])c2ccccc2c1OP(=O)([O-])[O-].[Na+].[Na+].[Na+].[Na+]` [Tetrasodium 2-methyl-3-bromo-1 4-naphthohydroquinone diphosphate], for which, in data set [6], the “exchange with ammonium 82Br-bromide” value is reported as “no exchange could be detected”.
